# Experimental data from publication PMC9133015 (Nature Communications, 2022).
# Where “and” joins values, the source holds several entries; their conditions need not be identical. Equal values may be shown once. Entries after “also recorded” stand apart in the source; their conditions may differ. Read-outs that look alike come from different tables or passages of the source.
# Tests used:
# Pharmacokinetic profiles = assay type: in vivo; conditions: rat, SD rats; for MRT inf: read-out: MRT0-∞
# ICR mice = test: Acute toxicity study; assay type: in vivo
# p-4E-BP1 (Thr37/46) = test: Western blotting analysis of indicated proteins in PCa cells; assay type: cell-based, human; conditions: 48 h treatment
# DU145 cells = test: Transcriptome-wide RNA-sequencing; assay type: cell-based, human; conditions: DU145, YK-2-69 3 µM 48 h vs DMSO
# [1] = SD, serum, po, 10 mg/kg, PO 10 mg/kg, read-out: Con. (individual rats NO.1-3)
# [2] = SD, serum, po, 10 mg/kg, PO 10 mg/kg, read-out: Con. Mean
# [3] = Sprague-Dawley, serum, iv, 1 mg/kg, IV 1 mg/kg, read-out: Con. (individual rats NO.1-3)
# [4] = Sprague-Dawley, serum, iv, 1 mg/kg, IV 1 mg/kg, read-out: Con. Mean
# [5] = ICR mice, single oral dose 2500, 5000, 10,000 mg/kg, 14 days
structure (smiles),measurement,setting,value
CCN1CCN(C(=O)c2ccc(Nc3ncc(F)c(-c4ccc5nc(N(C)C)sc5c4)n3)nc2)CC1 [YK-2-69],concentration at 0.083 h,Pharmacokinetic profiles; [1],9.72 ng/mL
same,concentration at 0.083 h,Pharmacokinetic profiles; [2],9.82 ng/mL
same,concentration at 0.25 h,Pharmacokinetic profiles; [1],90.7 ng/mL
same,concentration at 0.25 h,Pharmacokinetic profiles; [2],93.1 ng/mL
same,concentration at 0.5 h,Pharmacokinetic profiles; [1],210 ng/mL
same,concentration at 0.5 h,Pharmacokinetic profiles; [2],220 ng/mL
same,concentration at 1 h,Pharmacokinetic profiles; [1],386 ng/mL
same,concentration at 1 h,Pharmacokinetic profiles; [2],400 ng/mL
same,concentration at 2 h,Pharmacokinetic profiles; [1],600 ng/mL
same,concentration at 2 h,Pharmacokinetic profiles; [2],629 ng/mL
same,concentration at 4 h,Pharmacokinetic profiles; [1],684 ng/mL
same,concentration at 4 h,Pharmacokinetic profiles; [2],663 ng/mL
same,concentration at 6 h,Pharmacokinetic profiles; [1],685 ng/mL
same,concentration at 6 h,Pharmacokinetic profiles; [2],589 ng/mL
same,concentration at 8 h,Pharmacokinetic profiles; [1],507 ng/mL
same,concentration at 8 h,Pharmacokinetic profiles; [2],483 ng/mL
same,concentration at 12 h,Pharmacokinetic profiles; [1],309 ng/mL
same,concentration at 12 h,Pharmacokinetic profiles; [2],269 ng/mL
same,concentration at 24 h,Pharmacokinetic profiles; [1],67.9 ng/mL
same,concentration at 24 h,Pharmacokinetic profiles; [2],57.4 ng/mL
same,concentration at 0.033 h,"Pharmacokinetic profiles; Sprague-Dawley, serum, iv, 1 mg/kg, IV 1 mg/kg, 0.033 h, read-out: Con. Mean",974 ng/mL
same,concentration at 0.083 h,Pharmacokinetic profiles; [3],811 ng/mL
same,concentration at 0.083 h,Pharmacokinetic profiles; [4],781 ng/mL
same,concentration at 0.25 h,Pharmacokinetic profiles; [3],560 ng/mL
same,concentration at 0.25 h,Pharmacokinetic profiles; [4],524 ng/mL
same,concentration at 0.5 h,Pharmacokinetic profiles; [3],399 ng/mL
same,concentration at 0.5 h,Pharmacokinetic profiles; [4],421 ng/mL
same,concentration at 1 h,Pharmacokinetic profiles; [3],265 ng/mL
same,concentration at 1 h,Pharmacokinetic profiles; [4],310 ng/mL
same,concentration at 12 h,"Pharmacokinetic profiles; in vivo, IV 1 mg/kg, read-out: Con. (individual rats NO.1-3)",19.8 ng/mL
same,AUC(0-inf),"Pharmacokinetic profiles; serum, IV 1 mg/kg",1500 ng·h/mL
same,Cmax,"Pharmacokinetic profiles; serum, IV 1 mg/kg",974 ng/mL
same,Tmax,"Pharmacokinetic profiles; serum, IV 1 mg/kg",0.0333 h
same,clearance,"Pharmacokinetic profiles; serum, IV 1 mg/kg",11.2 mL/min/kg
same,half-life,"Pharmacokinetic profiles; serum, IV 1 mg/kg",3 h
same,MRT inf,"Pharmacokinetic profiles; serum, IV 1 mg/kg",3.5 h
same,AUC(0-inf),"Pharmacokinetic profiles; serum, PO 10 mg/kg",8380 ng·h/mL
same,Cmax,"Pharmacokinetic profiles; serum, PO 10 mg/kg",674 ng/mL
same,Tmax,"Pharmacokinetic profiles; serum, PO 10 mg/kg",4 h
same,half-life,"Pharmacokinetic profiles; serum, PO 10 mg/kg",5 h
same,bioavailability,"Pharmacokinetic profiles; serum, PO 10 mg/kg vs IV 1 mg/kg, read-out: F (oral bioavailability)",56%
same,MRT inf,"Pharmacokinetic profiles; serum, PO 10 mg/kg",8.9 h
same,"Figure S9b Heart (organ weight, individual mice)",ICR mice; 2500 mg/kg,0.094 and 0.137 and 0.125 and 0.146 and 0.118 and 0.152 and 0.105 and 0.097 and 0.092 and 0.115
same,"Figure S9b Kidney (organ weight, individual mice)",ICR mice; 2500 mg/kg,0.384 and 0.403 and 0.421 and 0.413 and 0.636 and 0.576 and 0.731 and 0.682 and 0.613
same,"Figure S9b Liver (organ weight, individual mice)",ICR mice; 2500 mg/kg,1.351 and 1.216 and 1.284 and 1.094 and 1.159 and 1.384 and 1.751 and 1.369 and 1.52 and 1.491
same,"Figure S9b Lung (organ weight, individual mice)",ICR mice; 2500 mg/kg,0.316 and 0.435 and 0.421 and 0.358 and 0.299 and 0.367 and 0.294 and 0.341 and 0.276 and 0.336
same,"Figure S9b Spleen (organ weight, individual mice)",ICR mice; 2500 mg/kg,0.176 and 0.186 and 0.205 and 0.201 and 0.214 and 0.253 and 0.196 and 0.221 and 0.206 and 0.257
same,Figure S9a body weight of individual mice,"ICR mice; 2500 mg/kg, Day 0",19.9 and 20.5 and 20.1 (2×) and 20 and 19.6 and 19.8 and 20.3 and 20.6 and 21.1
same,Figure S9a body weight of individual mice,"ICR mice; 2500 mg/kg, Day 2",20.2 (2×) and 20.8 and 20.3 (2×) and 20.4 and 19.8 and 20.6 and 20.9 and 21.5
same,Figure S9a body weight of individual mice,"ICR mice; 2500 mg/kg, Day 4",20.8 and 21.3 (2×) and 20.5 and 20.6 (2×) and 20.1 and 20.4 and 21.1 and 21.8
same,Figure S9a body weight of individual mice,"ICR mice; 2500 mg/kg, Day 6",21.3 and 21.7 and 20.6 and 20.8 and 20.2 and 20.7 and 21.5 and 21.9 and 22.2 and 20.9
same,Figure S9a body weight of individual mice,"ICR mice; 2500 mg/kg, Day 8",22.3 and 22.5 and 20.7 and 21.1 and 20.3 and 21 and 21.8 and 22.2 and 22.6 and 21.5
same,Figure S9a body weight of individual mice,"ICR mice; 2500 mg/kg, Day 10",22.9 and 23.2 and 20.9 and 21.4 and 20.5 and 21.3 and 22.2 and 22.5 and 23.4 and 21.9
same,Figure S9a body weight of individual mice,"ICR mice; 2500 mg/kg, Day 12",23.5 and 23.9 and 21.2 and 21.7 and 20.6 and 21.6 and 22.4 (2×) and 22.9 and 23.8
same,Figure S9a body weight of individual mice,"ICR mice; 2500 mg/kg, Day 14",24.2 and 24.5 and 21.4 and 22 and 20.9 and 21.8 and 22.9 (2×) and 23.4 and 24.3
same,"Figure S9b Heart (organ weight, individual mice)",ICR mice; 5000 mg/kg,0.126 and 0.135 and 0.116 and 0.143 and 0.138 and 0.106 and 0.112 and 0.096 and 0.094
same,"Figure S9b Kidney (organ weight, individual mice)",ICR mice; 5000 mg/kg,0.369 and 0.416 and 0.389 and 0.444 and 0.502 and 0.384 and 0.569 and 0.612 and 0.656 and 0.715
same,"Figure S9b Liver (organ weight, individual mice)",ICR mice; 5000 mg/kg,1.316 and 1.128 and 1.421 and 1.266 and 1.156 and 1.841 and 1.669 and 1.581 and 1.384 and 1.492
same,"Figure S9b Lung (organ weight, individual mice)",ICR mice; 5000 mg/kg,0.401 and 0.386 and 0.456 and 0.512 and 0.379 and 0.452 and 0.253 and 0.302 and 0.281 and 0.317
same,"Figure S9b Spleen (organ weight, individual mice)",ICR mice; 5000 mg/kg,0.2 and 0.186 and 0.199 and 0.214 and 0.231 and 0.25 and 0.241 and 0.267
same,Figure S9a body weight of individual mice,"ICR mice; 5000 mg/kg, Day 0",21.4 and 20.5 (3×) and 19.7 and 20.2 and 19.6 and 19.9 and 20.3 and 21.1
same,Figure S9a body weight of individual mice,"ICR mice; 5000 mg/kg, Day 2",21.7 and 20.9 and 19.9 and 20.4 and 19.6 and 20.3 and 20.7 and 20.6 and 21.5 and 20.8
same,"Figure S9b Heart (organ weight, individual mice)",ICR mice; 10000 mg/kg,0.115 and 0.099 and 0.142 and 0.128 and 0.122 and 0.129 and 0.089 and 0.096 and 0.124 and 0.106
same,"Figure S9b Kidney (organ weight, individual mice)",ICR mice; 10000 mg/kg,0.412 and 0.389 and 0.476 and 0.423 and 0.403 and 0.621 and 0.586 and 0.639 and 0.7 and 0.641
same,"Figure S9b Liver (organ weight, individual mice)",ICR mice; 10000 mg/kg,1.352 and 1.294 and 1.186 and 1.416 and 1.222 and 1.613 and 1.358 and 1.429 and 1.61 and 1.389
same,"Figure S9b Lung (organ weight, individual mice)",ICR mice; 10000 mg/kg,0.418 and 0.361 and 0.395 and 0.475 and 0.486 and 0.369 and 0.384 and 0.416 and 0.336 and 0.333
same,"Figure S9b Spleen (organ weight, individual mice)",ICR mice; 10000 mg/kg,0.181 and 0.194 and 0.176 and 0.189 and 0.201 and 0.235 and 0.214 and 0.226 and 0.257
same,maximal tolerable dose,"ICR mice; ICR mice, single oral dose","more than 10,000 mg/kg"
same,abnormality and death,ICR mice; [5],no mice died; also recorded: No abnormality and death were observed
same,body weight and main organs vs control (in words),ICR mice; [5],no difference was detected
same,phosphorylation of 4E-BP1,p-4E-BP1 (Thr37/46),inhibited the phosphorylation of 4E-BP1 in a dose-dependent manner
same,log2(fc) KLF6 (ENSG00000067082),DU145 cells,-1
same,log2(fc) MT-ND6 (ENSG00000198695),DU145 cells,1.099
same,log2(fc) PLK2 (ENSG00000145632),DU145 cells,-1.04
same,log2(fc) TAGLN (ENSG00000149591),DU145 cells,-2.064
